{"source": "patent US9695155B2", "about": "“Herbicidal substituted pyrimidinyloxy benzene compounds” (E. I. DU PONT DE NEMOURS AND COMPANY, priority 2013, dated 2017)", "test_system": "field bindweed", "assay": "Test E postemergence", "type": "in vivo, Convolvulus arvensis", "from_the_text": "Seeds of plant species selected from corn (Zea mays), soybean (Glycine max), velvetleaf (Abutilon theophrasti), lambsquarters (Chenopodium album), wild poinsettia (Euphorbia heterophylla), palmer pigweed (Amaranthus palmeri), waterhemp (common waterhemp, Amaranthus rudis), surinam grass (Brachiaria decumbens), large (Lg) crabgrass (Digitaria sanguinalis), Brazilian crabgrass (Digitaria horizontalis), fall panicum (Panicum dichotomiflorum), giant foxtail (Setaria faberii), green foxtail (Setaria viridis), goosegrass (Eleusine indica), johnsongrass (Sorghum halepense), ragweed (common ragweed, Ambrosia elatior), barnyardgrass (Echinochloa crus-galli), sandbur (southern sandbur, Cenchrus echinatus), arrowleaf sida (Sida rhombifolia), Italian ryegrass (Lolium multiflorum), dayflower (Virginia (VA) dayflower, Commelina virginica), field bindweed (Convolvulus arvensis), morningglory (Ipomoea coccinea), nightshade (eastern black nightshade, Solanum ptycanthum), kochia (Kochia scoparia), yellow nutsedge (Cyperus esculentus), cocklebur (common cocklebur, Xanthium strumarium), smartweed (ladysthumb smartweed, and hairy beggarticks (Bidens pilosa), were planted into a silt loam soil and treated preemergence with test chemicals formulated in a non-phytotoxic solvent mixture which included a surfactant.\nAt the same time, plants from these crop and weed species and also horseweed (Canada horseweed, Conyza canadensis), waterhemp_RES1, (ALS & Triazine resistant common waterhemp, Amaranthus rudis), and waterhemp_RES2, (ALS & HPPD resistant common waterhemp, Amaranthus rudis) were planted in pots containing Redi-Earth® planting medium (Scotts Company, 14111 Scottslawn Road, Marysville, Ohio 43041) comprising spaghnum peat moss, vermiculite, wetting agent and starter nutrients were treated with postemergence applications of test chemicals formulated in the same manner. Plants ranged in height from 2 to 18 cm for postemergence treatments (1- to 4-leaf stage). Treated plants and controls were maintained in a greenhouse for 14 to 21 days, after which time all species were compared to controls and visually evaluated. Plant response ratings, summarized in Table E, are based on a scale of 0 to 100 where 0 is no effect and 100 is complete control. A dash (-) response means no test result.", "key": {"[1]": {"conditions": "Postemergence, 31 g ai/ha, scale 0 to 100"}, "[2]": {"conditions": "Postemergence, 62 g ai/ha, scale 0 to 100"}, "[3]": {"conditions": "Postemergence, 125 g ai/ha, scale 0 to 100"}, "[4]": {"conditions": "postemergence, 16 g ai/ha, scale 0 to 100, 0 no effect, 100 complete control"}}}
{"smiles": "Fc1cnc(Oc2ccccc2-n2cc(Br)cn2)nc1", "note": "[Compound 10, 2-[2-(4-bromo-1H-pyrazol-1-yl)phenoxy]-5-fluoropyrimidine]", "values": [{"measurement": "pest or weed control at 31 g/ha", "setting": "Convolvulus arvensis, post-emergence, Postemergence, 31 g ai/ha, scale 0 to 100, read-out: Plant response rating, Field Bindweed", "value": 30, "unit": "%"}, {"measurement": "pest or weed control at 62 g/ha", "setting": "Convolvulus arvensis, post-emergence, Postemergence, 62 g ai/ha, scale 0 to 100, read-out: Plant response rating, Field Bindweed", "value": 30, "unit": "%"}, {"measurement": "pest or weed control at 125 g/ha", "setting": "Convolvulus arvensis, post-emergence, Postemergence, 125 g ai/ha, scale 0 to 100, read-out: Plant response rating, Field Bindweed", "value": 40, "unit": "%"}, {"measurement": "pest or weed control at 250 g/ha", "setting": "Convolvulus arvensis, post-emergence, Postemergence, 250 g ai/ha, scale 0 to 100, read-out: Plant response rating, Field Bindweed", "value": 50, "unit": "%"}, {"measurement": "pest or weed control at 16 g/ha", "setting": "Convolvulus arvensis, post-emergence, postemergence, 16 g ai/ha, scale 0 to 100, 0 no effect, 100 complete control, read-out: Plant response rating, Field Bindweed", "value": 15, "unit": "%"}]}
{"smiles": "FC(F)(F)c1cnn(-c2ccccc2Oc2ncc(Cl)cn2)c1", "note": "[Compound 16]", "values": [{"measurement": "Plant response rating, Field Bindweed", "setting": "[1]", "value": 30}, {"measurement": "Plant response rating, Field Bindweed", "setting": "[2]", "value": 40}, {"measurement": "Plant response rating, Field Bindweed", "setting": "[3]", "value": 50}, {"measurement": "Plant response rating, Field Bindweed", "setting": "Postemergence, 250 g ai/ha, scale 0 to 100", "value": 60}, {"measurement": "Plant response rating, Field Bindweed", "setting": "[4]", "value": 10}]}
{"smiles": "Clc1cnc(Oc2cccc(Br)c2-n2cc(Br)cn2)nc1", "note": "[Compound 65]", "values": [{"measurement": "Plant response rating, Field Bindweed", "setting": "[1]", "value": 20}, {"measurement": "Plant response rating, Field Bindweed", "setting": "[2]", "value": 40}, {"measurement": "Plant response rating, Field Bindweed", "setting": "[3]", "value": 40}, {"measurement": "Plant response rating, Field Bindweed", "setting": "postemergence, 8 g ai/ha, scale 0 to 100, 0 no effect, 100 complete control", "value": 0}, {"measurement": "Plant response rating, Field Bindweed", "setting": "[4]", "value": 10}]}
